Reference: patent publication US11198695B2, “Fused ring derivative having MGAT-2 inhibitory activity” (Shionogi & Co., Ltd., priority 2017, dated 2021)
pIC50: −log10 of the molar value.

molecular target: recombinant human MGAT2 (Homo sapiens (Human), UniProt Q3SYC2); assay: Measurement of human MGAT2 inhibitory activity; type: biochemical; conditions: read-out: IC50 (concentration exhibiting 50% enzyme inhibition), Table 52
Method in brief: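 Membrane fraction of Sf9 cells expressing N-terminally Flag-tagged full-length human MGAT2, incubated 1 h at room temperature in 100 mmol/L phosphate pH 7.4 with 2 mmol/L DTT. The substrate solution held 30 μmol/L 2-oleoylglycerol and 10 μmol/L oleoyl-CoA. Diolein product was quantified by RapidFire ESI Q-TOF MS against diolein-d5 internal standard; % inhibition was set relative to with/without-enzyme controls.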

Sequence of recombinant human MGAT2 (Q3SYC2 whole entry): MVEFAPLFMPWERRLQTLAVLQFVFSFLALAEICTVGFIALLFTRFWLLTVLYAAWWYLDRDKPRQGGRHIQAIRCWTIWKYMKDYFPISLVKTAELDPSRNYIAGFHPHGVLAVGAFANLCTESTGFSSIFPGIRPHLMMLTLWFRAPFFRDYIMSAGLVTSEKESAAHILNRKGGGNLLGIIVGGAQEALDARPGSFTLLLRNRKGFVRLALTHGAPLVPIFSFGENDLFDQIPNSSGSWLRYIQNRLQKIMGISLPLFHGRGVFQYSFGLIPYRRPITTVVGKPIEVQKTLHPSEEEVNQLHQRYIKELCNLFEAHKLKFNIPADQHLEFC

Row | pIC50 | Compound
1 | 6.00 | CC(C)(O)c1cccc(-n2nc3c(c2NC(=O)CS(C)(=O)=O)C(=O)N[C@@]2(CCc4cc(OCC(F)(F)F)ccc42)C3)c1 [Compound I-240]
2 | 6.74 | Cc1cc(C(=O)Nc2c3c(nn2CCC2CC2)C[C@]2(CCc4cc(OCC(F)(F)F)ccc42)NC3=O)no1 [Compound I-176]
3 | 6.34 | CCCC(C)n1nc2c(c1NC(=O)CS(C)(=O)=O)C(=O)N[C@@]1(CCc3cc(OCC(F)(F)F)ccc31)C2 (stereo partly drawn) [Compound I-214]
4 | 7.10 | CS(=O)(=O)CC(=O)Nc1c2c(nn1CC1CCCO1)C[C@]1(CCc3cc(OCC(F)(F)F)ccc31)NC2=O (stereo partly drawn) [Compound I-257]
5 | 7.68 | O=C(CC(F)F)Nc1c2c(nn1CCC1CC1)C[C@]1(CCc3cc(OCCCC(F)(F)F)ccc31)NC2=O [Compound I-20]
6 | 7.48 | O=C1N[C@@]2(CCc3cc(OCC(F)(F)F)ccc32)Cc2nn(CCC3CC3)c(C(=O)NCC3(O)CCC3)c21 [Compound I-90]
7 | 7.60 | CS(=O)(=O)CC(=O)Nc1c2c(nn1CCC1CC1)C[C@]1(CCc3cc(NCC(F)(F)F)ccc31)NC2=O [Compound I-102]
8 | 7.02 | CS(=O)(=O)CC(=O)Nc1c2c(nn1C1CCCC1)C[C@]1(CCc3cc(OCC(F)(F)F)ccc31)NC2=O [Compound I-76]
9 | 6.30 | CS(=O)(=O)CC(=O)Nc1c2c(nn1-c1cc(C(F)(F)F)cc(C(F)(F)F)c1)C[C@]1(CCc3cc(OCC(F)(F)F)ccc31)NC2=O [Compound I-130]
10 | 6.98 | CS(=O)(=O)CC(=O)Nc1c2c(nn1-c1cc(F)cc(F)c1)C[C@]1(CCc3cc(OCC(F)(F)F)ccc31)NC2=O [Compound I-127]
11 | 8.51 | Cc1ccnc(-n2nc3c(c2NC(=O)CS(C)(=O)=O)C(=O)N[C@@]2(CCc4cc(OCC(F)(F)F)ccc42)C3)c1 [Compound I-135]
12 | 7.77 | CS(=O)(=O)CC(=O)Nc1c2c(nn1-c1ccccn1)C[C@]1(CCc3cc(OCC(F)(F)F)ccc31)NC2=O [Compound I-101]
13 | 6.57 | O=C1N[C@@]2(CCc3cc(OCC(F)(F)F)ccc32)Cc2nn(CCC3CC3)c(CNS(=O)(=O)C3CCOCC3)c21 [Compound I-142]
14 | 8.15 | CS(=O)(=O)CC(=O)Nc1c2c(nn1CCC1CC1)C[C@@]1(CCc3cc(N4CC(C(F)(F)F)C4)ccc31)NC2=O [Compound I-166]
15 | 6.37 | N#CCNC(=O)c1c2c(nn1CCC1CC1)C[C@]1(CCc3cc(OCC(F)(F)F)ccc31)NC2=O [Compound I-84]
16 | 6.28 | CS(=O)(=O)CC(=O)Nc1c2c(nn1-c1cccc(C(F)(F)F)c1)C[C@]1(CCc3cc(OCC(F)(F)F)ccc31)NC2=O [Compound I-125]

Row | pIC50 | Compound
17 | 8.77 | CS(=O)(=O)CC(=O)Nc1c2c(nn1-c1ccc(C#N)cn1)C[C@@]1(CCc3cc(OCC(F)(F)F)cc(F)c31)NC2=O [Compound I-137]
18 | 6.21 | Cc1cc(C(=O)Nc2c3c(nn2CCC2CC2)C[C@]2(CCc4cc(OCC(F)(F)F)ccc42)NC3=O)n(C)n1 [Compound I-229]
19 | 6.03 | CS(=O)(=O)CC(=O)Nc1c2c(nn1-c1cccc3ccccc13)C[C@]1(CCc3cc(OCCCC(F)(F)F)ccc31)NC2=O [Compound I-39]
20 | 8.55 | Cc1ccc(-n2nc3c(c2NC(=O)CS(C)(=O)=O)C(=O)N[C@]2(CCc4cc(OCC(F)(F)F)ccc42)C3)nc1 [Compound I-270]
21 | 8.23 | CS(=O)(=O)CC(=O)Nc1c2c(nn1-c1ccc(C#N)cn1)C[C@]1(CCc3cc(N4CC(C(F)(F)F)C4)ccc31)NC2=O [Compound I-168]
22 | 6.62 | O=C(Nc1c2c(nn1CCC1CC1)C[C@]1(CCc3cc(OCC(F)(F)F)ccc31)NC2=O)c1cccnn1 [Compound I-81]
23 | 6.32 | Cn1cc(C(=O)Nc2c3c(nn2CCC2CC2)C[C@]2(CCc4cc(OCC(F)(F)F)ccc42)NC3=O)nn1 [Compound I-172]
24 | 7.92 | CS(=O)(=O)CC(=O)Nc1c2c(nn1CCC1CC1)C[C@]1(CCc3cc(C(F)(F)F)ccc31)NC2=O [Compound I-6]
25 | 7.05 | Cc1cnoc1C(=O)Nc1c2c(nn1CCC1CC1)C[C@]1(CCc3cc(OCC(F)(F)F)ccc31)NC2=O [Compound I-226]
26 | 6.64 | O=C1N[C@@]2(CCc3cc(OCC(F)(F)F)ccc32)Cc2nn(CCC3CC3)c(CNC(=O)C3CCCC3)c21 [Compound I-82]
27 | 6.20 | CS(=O)(=O)Nc1c2c(nn1CCC1CC1)C[C@]1(CCc3cc(OCCCC(F)(F)F)ccc31)NC2=O [Compound I-38]
28 | 9.00 | CS(=O)(=O)CC(=O)Nc1c2c(nn1-c1ccc(Cl)cn1)C[C@]1(CCc3cc(OCC(F)(F)F)ccc31)NC2=O [Compound I-77]
29 | 6.47 | Cc1cccc(-n2nc3c(c2NC(=O)CS(C)(=O)=O)C(=O)N[C@@]2(CCc4cc(OCC(F)(F)F)ccc42)C3)n1 [Compound I-134]
30 | 7.27 | CS(=O)(=O)CC(=O)Nc1c2c(nn1C1CCCCC1)C[C@]1(CCc3cc(OCC(F)(F)F)ccc31)NC2=O [Compound I-96]
31 | 6.40 | O=C(Nc1c2c(nn1CCC1CC1)C[C@]1(CCc3cc(OCC(F)(F)F)ccc31)NC2=O)c1ccncn1 [Compound I-199]
32 | 6.12 | O=C1N[C@@]2(CCc3cc(OCC(F)(F)F)ccc32)Cc2nn(CCC3CC3)c(C(=O)NC3CS(=O)(=O)C3)c21 [Compound I-68]

same assay, conditions: read-out: IC50 (concentration exhibiting 50% enzyme inhibition), Table 53

Row | pIC50 | Compound
33 | 8.50 | Cc1cc(-n2nc3c(c2NC(=O)CS(C)(=O)=O)C(=O)N[C@@]2(CCc4cc(OCC(F)(F)F)ccc42)C3)nnc1C [II-139]
34 | 7.19 | Cc1ccc(-n2nc3c(c2C(=O)NCC(N)=O)C(=O)N[C@@]2(CCOc4cc(OCC(F)(F)F)ccc42)C3)nc1 [II-229]
35 | 8.25 | Cc1ccc(-n2nc3c(c2NC(=O)CS(C)(=O)=O)C(=O)N[C@@]2(CCc4cc(C(F)(F)F)ccc42)C3)nc1 [II-122]
36 | 8.54 | CS(=O)(=O)CC(=O)Nc1c2c(nn1CCCOC(F)(F)F)C[C@]1(CCOc3cc(OCC(F)(F)F)ccc31)NC2=O [II-64]
37 | 7.87 | Cc1ccc(-n2nc3c(c2C(=O)NCC2(CO)CC2)C(=O)N[C@@]2(CCOc4cc(OCC(F)(F)F)ccc42)C3)nc1 [II-249]
38 | 8.70 | CS(=O)(=O)CC(=O)Nc1c2c(nn1CCC1CC1)C[C@@]1(CCc3cc(-c4cnn(C(F)(F)F)c4)ccc31)NC2=O [II-83]
39 | 8.81 | CS(=O)(=O)CC(=O)Nc1c2c(nn1CCCOC(F)F)C[C@@]1(CCc3cc(OCC(F)(F)F)ccc31)NC2=O [II-194]
40 | 7.93 | Cc1ccc(-n2nc3c(c2NC(=O)CC(N)=O)C(=O)N[C@@]2(CCOc4cc(OCC(F)(F)F)ccc42)C3)nc1 [II-269]
41 | 8.43 | N#Cc1ccc(-n2nc3c(c2C(=O)NCCS(N)(=O)=O)C(=O)N[C@]2(CCc4cc(OCC(F)(F)F)ccc42)C3)nc1 [II-246]
42 | > 9.00 | CS(=O)(=O)CC(=O)Nc1c2c(nn1CCCOC(F)(F)F)C[C@@]1(CCOc3cc(CCC(F)(F)F)ccc31)NC2=O [II-280]
43 | 7.34 | CCOC1CN(c2ccc3c(c2)CC[C@@]32Cc3nn(CCC4CC4)c(NC(=O)CS(C)(=O)=O)c3C(=O)N2)C1 [II-42]
44 | 7.82 | N#Cc1ccc(-n2nc3c(c2C(=O)NCC2(CO)COC2)C(=O)N[C@@]2(CCc4cc(OCC(F)(F)F)ccc42)C3)nc1 [II-62]
45 | 8.09 | Cc1ccc(-n2nc3c(c2NC(=O)CS(C)(=O)=O)C(=O)N[C@@]2(CCc4cc(OCC(F)F)ccc42)C3)nc1 [II-158]
46 | 8.17 | Cc1ccc(-n2nc3c(c2C(=O)NCC#N)C(=O)N[C@@]2(CCc4cc(OCC(F)(F)F)ccc42)C3)nc1 [II-197]
47 | 7.27 | Cc1ccc(-n2nc3c(c2C(=O)NCC2(C#N)CC2)C(=O)N[C@@]2(CCc4cc(OCC(F)(F)F)ccc42)C3)cc1F [II-222]
48 | 8.19 | Cc1cnnc(-n2nc3c(c2NC(=O)CS(C)(=O)=O)C(=O)N[C@@]2(CCc4cc(OCC(F)(F)F)ccc42)C3)c1 [II-140]

Row | pIC50 | Compound
49 | 7.25 | CS(=O)(=O)CC(=O)Nc1c2c(nn1-c1ccc(C#N)cn1)CC1(Cc3cc(F)c(F)cc3C1)NC2=O [II-102]
50 | 8.40 | CS(=O)(=O)CC(=O)Nc1c2c(nn1CCCOC(F)(F)F)C[C@@]1(NC2=O)c2ccc(OCC(F)(F)F)cc2CC1(F)F [II-97]
51 | 8.47 | Cc1ccc(-n2nc3c(c2NC(=O)CS(C)(=O)=O)C(=O)N[C@@]2(C3)c3ccc(OCC(F)(F)F)cc3CC2(F)F)nc1 [II-86]
52 | 7.59 | Cc1ccc(-n2nc3c(c2C(=O)NCCS(N)(=O)=O)C(=O)N[C@@](c2ccc(OCC(F)(F)F)cc2F)(C(F)(F)F)C3)nc1 [II-242]
53 | 6.89 | N#Cc1ccc(-n2nc3c(c2C(=O)N[C@H]2CC[C@H](O)CC2)C(=O)N[C@@]2(CCc4cc(OCC(F)(F)F)ccc42)C3)nc1 [II-130]
54 | 8.76 | CS(=O)(=O)CC(=O)Nc1c2c(nn1-c1ccc(C(F)(F)F)nn1)C[C@]1(CCc3cc(OCC(F)(F)F)ccc31)NC2=O [II-106]
55 | > 9.00 | CS(=O)(=O)CC(=O)Nc1c2c(nn1-c1ccc(C(F)(F)F)cn1)C[C@]1(CCOc3cc(OCC(F)(F)F)ccc31)NC2=O [II-294]
56 | 7.22 | N#Cc1ccc(-n2nc3c(c2C(=O)NCCOC(F)(F)F)C(=O)N[C@@]2(CCc4cc(OCC(F)(F)F)ccc42)C3)nc1 [II-114]
57 | 7.71 | N#Cc1ccc(-n2nc3c(c2C(=O)NCC(F)(F)F)C(=O)N[C@@]2(CCc4cc(OCC(F)(F)F)ccc42)C3)nc1 [II-124]
58 | 6.96 | CS(=O)(=O)CC(=O)Nc1c2c(nn1-c1ccc(C#N)cn1)CC1(CN(c3nc(C(F)(F)F)co3)C1)NC2=O [II-79]
59 | 7.49 | CS(=O)(=O)CC(=O)Nc1c2c(nn1CCn1cccn1)C[C@@]1(CCc3cc(OCC(F)(F)F)ccc31)NC2=O [II-22]
60 | 9.00 | CS(=O)(=O)CC(=O)Nc1c2c(nn1CCCOC(F)(F)F)C[C@@]1(CCc3cc(OCCCC(F)(F)F)ccc31)NC2=O [II-277]
61 | 8.98 | CS(=O)(=O)CC(=O)Nc1c2c(nn1-c1ccc(C#N)cn1)C[C@]1(CCc3cc(OCC(F)(F)F)c(F)cc31)NC2=O [II-144]
62 | 7.68 | CS(=O)(=O)CC(=O)Nc1c2c(nn1CCn1cccn1)C[C@]1(CCOc3cc(OCC(F)(F)F)ccc31)NC2=O [II-27]
63 | 7.19 | CS(=O)(=O)CC(=O)Nc1c2c(nn1C1CC3(COC3)C1)C[C@]1(CCc3cc(OCC(F)(F)F)ccc31)NC2=O [II-11]
